Paper PMC9267968, “Continued Structural Exploration of Sulfocoumarin as Selective Inhibitor of Tumor-Associated Human Carbonic Anhydrases IX and XII” (Molecules, 2022)
Several values for one entry are separate records, joined by “and”; a condition that tells them apart may be missing. Identical values can stand only once. Like-named read-outs stand apart in the source and are kept apart here.

Legend:
[1] = target: T1, hCA I (Homo sapiens, UniProt P00915); assay: stopped-flow CO2 hydrase assay, hCA I inhibition; type: biochemical; settings: 6 h incubation of enzyme and inhibitor; mean from 3 different assays, errors 5-10%; read-out: KI (nM) CA I
T1 construct: made in house
T1 sequence (P00915 whole entry): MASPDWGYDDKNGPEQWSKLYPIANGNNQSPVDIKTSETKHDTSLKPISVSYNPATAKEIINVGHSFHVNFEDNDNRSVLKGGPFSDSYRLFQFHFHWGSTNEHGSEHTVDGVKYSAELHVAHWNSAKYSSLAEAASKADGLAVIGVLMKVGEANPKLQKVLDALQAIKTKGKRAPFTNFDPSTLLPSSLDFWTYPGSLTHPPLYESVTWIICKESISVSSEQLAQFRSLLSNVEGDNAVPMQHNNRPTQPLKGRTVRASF
Protocol: (§1) For this reason, we herein report a 6 h incubation time instead.
(§2) An Applied Photophysics stopped-flow instrument was used for assaying the CA catalyzed CO2 hydration activity. […] The uncatalyzed rates were determined in the same manner and subtracted from the total observed rates. Stock solutions of inhibitor (0.1 mM) were prepared in distilled–deionized water and dilutions up to 0.01 nM were done thereafter with the assay buffer. Inhibitor and enzyme solutions were preincubated together for 6h at room temperature prior to assay, in order to allow for the formation of the E-I complex. The inhibition constants were obtained by non-linear least-squares methods using PRISM 3 and the Cheng–Prusoff equation and represent the mean from at least three different determinations. […] All CA isoforms were recombinant ones obtained in-house.

[2] = target: T2, hCA IX (Homo sapiens, UniProt Q16790); assay: stopped-flow CO2 hydrase assay, hCA IX inhibition; type: biochemical; settings: 6 h incubation of enzyme and inhibitor; mean from 3 different assays, errors 5-10%; read-out: KI (nM) CA IX
T2 construct: made in house
Protocol: as §1, §2

[3] = target: T3, hCA XII (Homo sapiens, UniProt O43570); assay: biochemical
T3 construct: made in house
T3 sequence (O43570 25-354): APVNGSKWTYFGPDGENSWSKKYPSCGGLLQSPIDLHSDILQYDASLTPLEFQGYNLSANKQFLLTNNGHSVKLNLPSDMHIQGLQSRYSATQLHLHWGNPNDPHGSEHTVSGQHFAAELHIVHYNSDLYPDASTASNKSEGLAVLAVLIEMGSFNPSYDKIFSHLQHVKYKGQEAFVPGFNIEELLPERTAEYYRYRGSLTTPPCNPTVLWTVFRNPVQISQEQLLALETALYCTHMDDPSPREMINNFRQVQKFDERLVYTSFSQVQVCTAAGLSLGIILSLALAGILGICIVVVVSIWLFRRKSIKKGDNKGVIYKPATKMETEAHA
Protocol: as §1, §2

[4] = target: T4, hCA II (Homo sapiens, UniProt P00918); assay: stopped-flow CO2 hydrase assay, hCA II inhibition; type: biochemical; settings: 6 h incubation of enzyme and inhibitor; mean from 3 different assays, errors 5-10%; read-out: KI (nM) CA II
T4 construct: made in house
Protocol: as §1, §2

[5] = 6 h incubation of enzyme and inhibitor, mean from 3 different assays, errors 5-10%, read-out: KI (nM) CA XII

COc1ccc2c(c1)OS(=O)(=O)C=C2 [Compound 9, 7-Methoxybenzo[e][1,2]oxathiine 2,2-dioxide]
Ki [1]: > 100000 nM
Ki [2]: 74.9 nM
Ki [3, 5]: 61.4 nM
melting point: 111 to 112 °C

COc1ccc2c(c1)OS(=O)(=O)C=C2C [Compound 10, 7-Methoxy-4-methylbenzo[e][1,2]oxathiine 2,2-dioxide]
Ki [1]: > 100000 nM
Ki [4]: 8810 nM
Ki [2]: 97.2 nM
Ki [3, 5]: 73.9 nM
melting point: 151 to 153 °C

O=S1(=O)C=Cc2ccc(O)cc2O1 [Compound 11, 7-Hydroxybenzo[e][1,2]oxathiine 2,2-dioxide]
Ki [1]: 16500 nM
Ki [2]: 55.8 nM
Ki [3, 5]: 42.5 nM
melting point: 157 to 159 °C

CC1=CS(=O)(=O)Oc2cc(O)ccc21 [Compound 12, 7-Hydroxy-4-methylbenzo[e][1,2]oxathiine 2,2-dioxide]
Ki [1]: 9960 nM
Ki [4]: 3860 nM
Ki [2]: 81.7 nM
Ki [3, 5]: 55 nM
melting point: 172 to 175 °C

O=S1(=O)C=Cc2ccc(OCc3ccccc3)cc2O1 [Compound 13, 7-(Benzyloxy)benzo[e][1,2]oxathiine 2,2-dioxide]
Ki [1]: > 100000 nM
Ki [2]: 55.6 nM
Ki [3, 5]: 28.3 nM
melting point: 165 to 167 °C

O=S1(=O)C=Cc2ccc(OCc3ccc(F)cc3)cc2O1 [Compound 14, 7-((4-Fluorobenzyl)oxy)benzo[e][1,2]oxathiine 2,2-dioxide]
Ki [1]: > 100000 nM
Ki [4]: > 100000 nM
Ki [2]: 22.9 nM
Ki [3, 5]: 19.2 nM
melting point: 197 to 199 °C

O=S1(=O)C=Cc2ccc(OCc3cccc(F)c3)cc2O1 [Compound 15, 7-((3-Fluorobenzyl)oxy)benzo[e][1,2]oxathiine 2,2-dioxide]
Ki [1]: > 100000 nM
Ki [4]: > 100000 nM
Ki [2]: 28.4 nM
Ki [3, 5]: 46 nM
melting point: 180 to 183 °C

O=[N+]([O-])c1ccc(COc2ccc3c(c2)OS(=O)(=O)C=C3)cc1 [Compound 16, 7-((4-Nitrobenzyl)oxy)benzo[e][1,2]oxathiine 2,2-dioxide]
Ki [1]: > 100000 nM
Ki [4]: > 100000 nM
Ki [2]: 68.9 nM and 69.8 nM
Ki [3, 5]: 94.7 nM
melting point: 215 to 217 °C

O=[N+]([O-])c1cccc(COc2ccc3c(c2)OS(=O)(=O)C=C3)c1 [Compound 17, 7-((3-nitrobenzyl)oxy)benzo[e][1,2]oxathiine 2,2-dioxide]
Ki [1]: > 100000 nM
Ki [4]: > 100000 nM
Ki [2]: 40.2 nM
Ki [3, 5]: 77.5 nM
melting point: 200 to 202 °C

CC1=CS(=O)(=O)Oc2cc(OCc3ccccc3)ccc21 [Compound 18, 7-(benzyloxy)-4-methylbenzo[e][1,2]oxathiine 2,2-dioxide]
Ki [1]: > 100000 nM
Ki [4]: > 100000 nM
Ki [2]: 49.8 nM
Ki [3, 5]: 8.6 nM
melting point: 174 to 175 °C

CC1=CS(=O)(=O)Oc2cc(OCc3ccc(F)cc3)ccc21 [Compound 19, 7-((4-fluorobenzyl)oxy)-4-methylbenzo[e][1,2]oxathiine 2,2-dioxide]
Ki [1]: > 100000 nM
Ki [4]: > 100000 nM
Ki [2]: 14.3 nM
Ki [3, 5]: 41.7 nM
melting point: 195 to 198 °C

CC1=CS(=O)(=O)Oc2cc(OCc3cccc(F)c3)ccc21 [Compound 20, 7-((3-fluorobenzyl)oxy)-4-methylbenzo[e][1,2]oxathiine 2,2-dioxide]
Ki [1]: > 100000 nM
Ki [4]: > 100000 nM
Ki [2]: 33.2 nM
Ki [3, 5]: 25.7 nM
melting point: 214 to 215 °C

CC1=CS(=O)(=O)Oc2cc(OCc3ccc([N+](=O)[O-])cc3)ccc21 [Compound 21, 7-((4-nitrobenzyl)oxy)-4-methylbenzo[e][1,2]oxathiine 2,2-dioxide]
Ki [1]: > 100000 nM
Ki [4]: > 100000 nM
Ki [2]: 89.7 nM
Ki [3, 5]: 101 nM
melting point: 247 to 249 °C

CC1=CS(=O)(=O)Oc2cc(OCc3cccc([N+](=O)[O-])c3)ccc21 [Compound 22, 7-((3-nitrobenzyl)oxy)-4-methylbenzo[e][1,2]oxathiine 2,2-dioxide]
Ki [1]: > 100000 nM
Ki [4]: > 100000 nM
Ki [2]: 61.4 nM
Ki [3, 5]: 136 nM
melting point: 239 to 241 °C

COc1ccc2c(c1)OS(=O)(=O)c1ccccc1-2 [Compound 25, 3-methoxydibenzo[c,e][1,2]oxathiine 6,6-dioxide]
Ki [1]: > 100000 nM
Ki [4]: > 100000 nM
Ki [2]: 1290 nM
Ki [3, 5]: 966 nM
melting point: 180 to 183 °C

O=S1(=O)Oc2cc(O)ccc2-c2ccccc21 [Compound 26, 3-Hydroxydibenzo[c,e][1,2]oxathiine 6,6-dioxide]
Ki [1]: 42600 nM
Ki [4]: 9000 nM
Ki [2]: 559 nM
Ki [3, 5]: 414 nM
melting point: 181 to 182 °C

O=S1(=O)Oc2cc(OCc3ccccc3)ccc2-c2ccccc21 [Compound 27, 3-(benzyloxy)dibenzo[c,e][1,2]oxathiine 6,6-dioxide]
Ki [1]: > 100000 nM
Ki [4]: > 100000 nM
Ki [2]: 681 nM
Ki [3, 5]: 911 nM
melting point: 232 to 235 °C

O=S1(=O)Oc2cc(OCc3ccc(F)cc3)ccc2-c2ccccc21 [Compound 28, 3-((4-fluorobenzyl)oxy)dibenzo[c,e][1,2]oxathiine 6,6-dioxide]
Ki [1]: > 100000 nM
Ki [4]: > 100000 nM
Ki [2]: 755 nM
Ki [3, 5]: 654 nM
melting point: 268 to 269 °C

O=S1(=O)Oc2cc(OCc3cccc(F)c3)ccc2-c2ccccc21 [Compound 29, 3-((3-fluorobenzyl)oxy)dibenzo[c,e][1,2]oxathiine 6,6-dioxide]
Ki [1]: > 100000 nM
Ki [4]: > 100000 nM
Ki [2]: 615 nM
Ki [3, 5]: 566 nM
melting point: 249 to 252 °C

O=[N+]([O-])c1ccc(COc2ccc3c(c2)OS(=O)(=O)c2ccccc2-3)cc1 [Compound 30, 3-((4-nitrobenzyl)oxy)dibenzo[c,e][1,2]oxathiine 6,6-dioxide]
Ki [1]: > 100000 nM
Ki [4]: > 100000 nM
Ki [2]: 965 nM
Ki [3, 5]: 1060 nM
melting point: 264 to 266 °C

O=[N+]([O-])c1cccc(COc2ccc3c(c2)OS(=O)(=O)c2ccccc2-3)c1 [Compound 31, 3-((3-nitrobenzyl)oxy)dibenzo[c,e][1,2]oxathiine 6,6-dioxide]
Ki [1]: > 100000 nM
Ki [4]: > 100000 nM
Ki [2]: 898 nM
Ki [3, 5]: 1370 nM
melting point: 248 to 251 °C

CCOC(=O)C1=Cc2ccccc2OS1(=O)=O [Compound 34, ethyl benzo[e][1,2]oxathiine-3-carboxylate 2,2-dioxide]
Ki [1]: > 100000 nM
Ki [4]: > 100000 nM
Ki [2]: 1630 nM
Ki [3]: 2590 nM
melting point: 111 to 113 °C

CCOC(=O)C1=Cc2ccc(OC)cc2OS1(=O)=O [Compound 35, ethyl 7-methoxybenzo[e][1,2]oxathiine-3-carboxylate 2,2-dioxide]
Ki [1]: > 100000 nM
Ki [4]: > 100000 nM
Ki [2]: 1080 nM
Ki [3]: 1530 nM
melting point: 167 to 169 °C

O=C(O)C1=Cc2ccccc2OS1(=O)=O [Compound 36, benzo[e][1,2]oxathiine-3-carboxylic acid 2,2-dioxide]
Ki [1]: 4620 nM
Ki [4]: 996 nM
Ki [2]: 500 nM
Ki [3]: 564 nM
melting point: 105 to 107 °C

COc1ccc2c(c1)OS(=O)(=O)C(C(=O)O)=C2 [Compound 37, 7-methoxybenzo[e][1,2]oxathiine-3-carboxylic acid 2,2-dioxide]
Ki [1]: 7140 nM
Ki [4]: 728 nM
Ki [2]: 854 nM
Ki [3]: 408 nM
melting point: 150 to 151 °C
